According to US20240158393A1, “PYRIDONE COMPOUNDS AND METHODS OF USE” (Exelixis, Inc., priority 2021, published 2024):

Legend:
Type in all cases: biochemical
Human Mer = molecular target: T1, Human Mer (Homo sapiens, UniProt Q12866); experiment: Human Mer kinase assay (33P radiometric / HTRF KinEase); conditions: protocols of Examples C-1 and/or C-2
T1 construct: Human Mer (residues R557-E882 with H628Q and R794A, 0.7 nM); purchased Eurofins Pharma Discovery Services UK Limited (KinaseProfiler service)
T1 sequence (Q12866 557-882 limits assumed): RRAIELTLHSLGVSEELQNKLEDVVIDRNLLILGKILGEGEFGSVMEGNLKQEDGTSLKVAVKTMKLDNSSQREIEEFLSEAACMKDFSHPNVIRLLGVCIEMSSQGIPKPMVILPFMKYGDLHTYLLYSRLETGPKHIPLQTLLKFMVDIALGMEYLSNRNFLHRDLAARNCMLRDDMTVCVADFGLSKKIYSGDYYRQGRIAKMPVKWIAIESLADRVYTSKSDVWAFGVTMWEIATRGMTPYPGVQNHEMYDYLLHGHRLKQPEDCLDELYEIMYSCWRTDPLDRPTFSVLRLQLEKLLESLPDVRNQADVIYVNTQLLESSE
Protocol: (§1) Kinase activity and compound inhibition were investigated using the ^33P-Phosphoryl transfer radiometric kinase assay, performed using the KinaseProfiler™ service of Eurofins Pharma Discovery Services UK Limited. Dose-response experiments were performed using nine compound concentrations in a 96-well microtiter plate. For each assay, all compounds were prepared to a 50× final assay concentration (50 μM) in 100% DMSO, then diluted in a half-log series, with the final top concentration at 1 μM. This working stock of the compound was added to the assay well as the first component in the reaction, followed by the remaining components as detailed in the following assay protocols below. The positive control wells (100% kinase activity) contain all components of the reaction including 2% DMSO (control for solvent effects), except the compound of interest. Blank wells contain all components of the reaction, with the reference inhibitor, staurosporine. This reference compound was used to abolish kinase activity and generated the 0% kinase activity base-line. IC50 values were calculated by nonlinear regression analysis using the sigmoidal dose-response (variable slope) curve fit on XLFit version 5.3 (ID Business Solutions).
(§2) Kinase activity and compound inhibition were also investigated using the HTRF® KinEase assay (Cisbio Cat #62TKOPEB) per manufacturer's instructions. In short, compounds were delivered in 300 nL volumes at 10 different concentrations in DMSO (3% final) to empty 384-well assay plates (Corning cat #3824). A mixture of enzyme, 1 μM biotinylated peptide substrate, and buffer in 10 μL volume was added. The assay was started upon the addition of ATP (at Km). The 10 μL reaction was incubated at room temperature. The reaction was stopped upon the addition of detection buffer containing streptavidin-XL665 (5 μL) and TK antibody-Eu3+(5 μL). After a 60 min incubation at room temperature, the fluorescence at 665 nm and 620 nm was read on an Envision microplate reader (Perkin Elmer).
(§3) Kinase activity normalized to DMSO (100% activity) and reference compound at 1 μM and (0% activity) was calculated using the fluorescence ratio […]. IC50 values were calculated by nonlinear regression analysis using a 4-parameter logistic curve fit in ActivityBase XE (IDBS).
(§4) Example C-1: Human Mer (residues R557-E882 with H628Q and R794A, 0.7 nM) was incubated with 8 mM MOPS pH 7.0, 0.2 mM EDTA, 30 mM NaCl, 250 μM GGMEDIYFEFMGGKKK (SEQ ID NO: 2), 10 mM magnesium acetate, and 10 μM [γ-^33P-ATP]. The reaction was initiated by the addition of the Mg/ATP mix. After incubation for 40 minutes at room temperature, the reaction was stopped by the addition of phosphoric acid to a concentration of 0.5%. A reaction aliquot of 10 μL was then spotted onto a P30 filtermat and washed four times for 4 minutes in 0.425% phosphoric acid and once in methanol prior to drying and scintillation counting. Incorporated ^33P was measured using the Wallac Microbeta scintillation counter (Perkin Elmer).
Example C-2: Human MER (residues 528-999; CarnaBio, 1 ng/well) was also incubated with enzymatic buffer (Cisbio) supplemented with 5 mM MgCl2 and 1 mM DTT. The mixture was added to the pre-plated compounds. The reaction was initiated upon addition of ATP at Km (40 μM). The reaction was incubated at room temperature for 60 min and stopped upon the addition of SA-XL665 and TK-antibody both diluted in EDTA-containing kinase detection buffer (Cisbio). The kinase activity was calculated as stated above and the IC50 values were reported.

Human Met = molecular target: T2, Human Met (Homo sapiens, UniProt P08581); experiment: Human Met kinase assay (33P radiometric / HTRF KinEase); conditions: protocols of Examples D-1 and/or D-2; read-out: c-Met IC50
T2 construct: Human MET (residues 956-1390)
T2 sequence (P08581 974-1390 limits assumed): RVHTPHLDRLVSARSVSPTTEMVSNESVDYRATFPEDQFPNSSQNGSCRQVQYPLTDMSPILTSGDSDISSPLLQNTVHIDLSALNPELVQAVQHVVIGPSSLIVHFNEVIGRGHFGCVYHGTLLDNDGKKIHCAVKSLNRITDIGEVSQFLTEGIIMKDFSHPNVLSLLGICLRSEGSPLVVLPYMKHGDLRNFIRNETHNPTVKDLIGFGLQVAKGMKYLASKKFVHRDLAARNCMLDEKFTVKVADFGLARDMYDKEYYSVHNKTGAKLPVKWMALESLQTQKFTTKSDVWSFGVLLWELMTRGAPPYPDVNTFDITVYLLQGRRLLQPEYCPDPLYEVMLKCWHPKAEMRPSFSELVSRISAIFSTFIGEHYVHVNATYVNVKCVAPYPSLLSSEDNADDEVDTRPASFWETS
Protocol: as §1, §2, §3
Example D-1: Human Met (residues R974-S1390 with A1209G and V1290L, 3.4 nM) was incubated with 8 mM MOPS pH 7.0, 0.2 mM EDTA, 250 μM KKKGQEEEYVFIE (SEQ ID NO:3), 1 mM sodium orthovanadate, 5 mM […], 10 mM magnesium acetate, and 10 μM [γ-^33P-ATP]. The reaction was initiated by the addition of the Mg/ATP mix. After incubation for 40 minutes at room temperature, the reaction was stopped by the addition of phosphoric acid to a concentration of 0.5%. A reaction aliquot of 10 μL was then spotted onto a P30 filtermat and washed four times for 4 minutes in 0.425% phosphoric acid and once in methanol prior to drying and scintillation counting. Incorporated ^33P was measured using the Wallac Microbeta scintillation counter (Perkin Elmer).
(§5) Example D-2: Human MET (residues 956-1390; CarnaBio, 0.1 ng/well) was also incubated with enzymatic buffer (Cisbio) supplemented with 5 mM MgCl2, 1 mM DTT and 1 mM MnCl2. The mixture was added to the pre-plated compounds. The reaction was initiated upon addition of ATP at Km (3.0 μM). The reaction was incubated at room temperature for 40 min and stopped upon the addition of SA-XL665 and TK-antibody both diluted in EDTA-containing kinase detection buffer (Cisbio). The kinase activity was calculated as stated above and the IC50 values were reported.

Human KDR = molecular target: T3, Human KDR (Homo sapiens, UniProt P35968); experiment: Human KDR kinase assay (33P radiometric / HTRF KinEase); conditions: protocols of Examples B-1 and/or B-2
T3 construct: Human KDR (residues K790-V1356, 55 nM); purchased Eurofins Pharma Discovery Services UK Limited (KinaseProfiler, B-1) and/or CarnaBio (B-2)
T3 sequence (P35968 790-1356): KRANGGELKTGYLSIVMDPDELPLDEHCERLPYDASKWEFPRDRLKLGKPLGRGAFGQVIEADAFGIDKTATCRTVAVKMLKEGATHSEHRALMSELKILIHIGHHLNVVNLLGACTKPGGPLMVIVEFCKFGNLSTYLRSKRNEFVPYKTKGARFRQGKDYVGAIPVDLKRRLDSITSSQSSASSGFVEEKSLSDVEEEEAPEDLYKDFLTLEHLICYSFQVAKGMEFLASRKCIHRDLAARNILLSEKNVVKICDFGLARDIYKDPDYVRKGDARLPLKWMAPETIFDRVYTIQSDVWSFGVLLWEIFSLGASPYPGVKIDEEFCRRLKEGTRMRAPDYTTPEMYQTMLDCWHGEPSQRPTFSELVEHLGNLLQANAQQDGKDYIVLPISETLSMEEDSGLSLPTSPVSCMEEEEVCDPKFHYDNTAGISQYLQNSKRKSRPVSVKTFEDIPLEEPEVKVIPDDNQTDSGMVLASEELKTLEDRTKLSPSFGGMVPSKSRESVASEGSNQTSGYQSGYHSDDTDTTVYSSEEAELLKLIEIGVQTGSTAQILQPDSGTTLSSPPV
Protocol: as §1, §2, §3
as §4, with “B-1:” for “C-1:”, “KDR” for “Mer”, “K790-V1356, 55” for “R557-E882 with H628Q and R794A, 0.7”, “0.33 mg/mL myelin basic protein,” for “30 mM NaCl, 250 μM GGMEDIYFEFMGGKKK (SEQ ID NO: 2),”
as §5, with “B-2:” for “D-2:”, “KDR” for “MET”, “790-1356;” for “956-1390;”, “MnCl2,” for “DTT”, “DTT.” for “MnCl2.”, “(4.0” for “(3.0”

Structure (SMILES)	IC50 (Human Mer) [nM]	IC50 (Human Met) [nM]	IC50 (Human KDR) [nM]
COc1cc2nccc(Oc3ccc(NC(=O)c4c5n(c(C)c(C6=CCCC6)c4=O)CCOC5)cc3F)c2nc1OC [Compound 69, 7-(Cyclopenten-1-yl)-N-[4-[(6,7-dimethoxy-1,5-naphthyridin-4-yl)oxy]-3-fluorophenyl]-6-methyl-8-oxo-3,4-dihydro-1H-pyrido[2,1-c][1,4]oxazine-9-carboxamide]	≤ 100	≤ 100	≤ 100
COCCOc1cc2nccc(Oc3ccc(NC(=O)c4c(C)nc(C)c(OC)c4O)cc3F)c2nc1OC [Compound 70, N-[3-Fluoro-4-[[6-methoxy-7-(2-methoxyethoxy)-1,5-naphthyridin-4-yl]oxy]phenyl]-4-hydroxy-5-methoxy-2,6-dimethylpyridine-3-carboxamide]	> 300	> 300	≤ 100
COCCOc1cc2nccc(Oc3ccc(NC(=O)c4c(C)nc(C)c(OC)c4O)cc3)c2nc1OC [Compound 71, 4-Hydroxy-5-methoxy-N-[4-[[6-methoxy-7-(2-methoxyethoxy)-1,5-naphthyridin-4-yl]oxy]phenyl]-2,6-dimethylpyridine-3-carboxamide]	> 300	> 300	≤ 100
COCCOc1cc2ncnc(Oc3ccc(NC(=O)c4c(C)nc(C)c(OC)c4O)cc3F)c2nc1OC [Compound 72, N-[3-Fluoro-4-[6-methoxy-7-(2-methoxyethoxy)pyrido[3,2-d]pyrimidin-4-yl]oxyphenyl]-4-hydroxy-5-methoxy-2,6-dimethylpyridine-3-carboxamide]	> 300	> 300	≤ 100
COc1cnc2c(Oc3ccc(NC(=O)c4c(C)n(C)c(C)c(OC)c4=O)cc3F)ccnc2c1 [Compound 75, N-[3-Fluoro-4-[(7-methoxy-1,5-naphthyridin-4-yl)oxy]phenyl]-5-methoxy-1,2,6-trimethyl-4-oxopyridine-3-carboxamide]	> 300	> 300	> 300
COc1cc2nccc(Oc3ccc(NC(=O)c4c(C)n(C)c(C)c(OC)c4=O)cc3)c2nc1OC [Compound 76, N-[4-[(6,7-Dimethoxy-1,5-naphthyridin-4-yl)oxy]phenyl]-5-methoxy-1,2,6-trimethyl-4-oxopyridine-3-carboxamide]	> 300	> 300	> 300
COc1cc2nccc(Oc3ccc(NC(=O)c4c(C)n(C)c(C)c(OC)c4=O)cc3F)c2nc1OC [Compound 77, N-[4-[(6,7-Dimethoxy-1,5-naphthyridin-4-yl)oxy]-3-fluorophenyl]-5-methoxy-1,2,6-trimethyl-4-oxopyridine-3-carboxamide]	> 300	> 300	> 300
COc1cc2nccc(Oc3ccc(NC(=O)c4c(C)n(C)c(C)c(C#N)c4=O)cc3F)c2nc1OC [Compound 78, 5-Cyano-N-[4-[(6,7-dimethoxy-1,5-naphthyridin-4-yl)oxy]-3-fluorophenyl]-1,2,6-trimethyl-4-oxopyridine-3-carboxamide]	> 300	> 300	> 300
COc1cc2nccc(Oc3ccc(NC(=O)c4c5n(cc(C6=CCCC6)c4=O)CCOC5)cc3F)c2nc1OC [Compound G1-1, 7-(Cyclopenten-1-yl)-N-[4-[(6,7-dimethoxy-1,5-naphthyridin-4-yl)oxy]-3-fluorophenyl]-8-oxo-3,4-dihydro-1H-pyrido[2,1-c][1,4]oxazine-9-carboxamide]	≤ 100	≤ 100	100 to 300
COc1cc2nccc(Oc3ccc(NC(=O)c4c5n(cc(C6=CCCC6)c4=O)CCOC5)cc3)c2nc1OC [Compound G1-6, 7-(Cyclopenten-1-yl)-N-[4-[(6,7-dimethoxy-1,5-naphthyridin-4-yl)oxy]phenyl]-8-oxo-3,4-dihydro-1H-pyrido[2,1-c][1,4]oxazine-9-carboxamide]	≤ 100	≤ 100	> 300
COc1cc2nccc(Oc3ccc(NC(=O)c4c5n(cc(C6=CCOCC6)c4=O)CCOC5)cc3F)c2nc1OC [Compound G1-7, 7-(3,6-Dihydro-2H-pyran-4-yl)-N-[4-[(6,7-dimethoxy-1,5-naphthyridin-4-yl)oxy]-3-fluorophenyl]-8-oxo-3,4-dihydro-1H-pyrido[2,1-c][1,4]oxazine-9-carboxamide]	≤ 100	≤ 100	> 300
